{
  "source": "patent US12595251B2",
  "about": "“Amidines and amidine analogs for the treatment of bacterial infections and potentiation antibiotics” (GEORGIA STATE UNIVERSITY RESEARCH FOUNDATION, INC., priority 2018, dated 2026)",
  "key": {"MRSA [1]": {"test_system": "MRSA", "assay": "MIC of compounds against MRSA (OD600, 48 h)", "assay_type": "cell-based", "conditions": "Staphylococcus aureus; for MIC: MIC = 90% growth inhibition, compound alone, 48 h; for inhibition at 12 µM: compound alone at 12 μM, NA=no activity, read-out: Growth inhibition of MRSA at 12 μM", "method": "Bacteria were then cultured with varying concentration of the compounds shown below for 48 hours, and then bacterial density was measured based on OD600. The minimum inhibitory concentration (MIC, 90% growth inhibition) was calculated for each compound, as shown in Table 4 (NA=no activity; --=not measured)."}, "MRSA [2]": {"test_system": "MRSA", "assay": "Sensitization of MRSA to erythromycin (sensitization fold from IC90)", "assay_type": "cell-based, Staphylococcus aureus", "conditions": "for SF (MRSA) at 12 μM: compound at 12 μM; for SF (MRSA) at 6 μM: compound at 6 μM", "method": "MRSA bacteria were cultured in nutrient broth at 37° C. overnight prior to treatment. […] Bacterial density was measured based on OD600."}, "E. coli": {"test_system": "E. coli", "assay": "Sensitization of E. coli to erythromycin (sensitization fold from IC90, OD600, 20 h)", "assay_type": "cell-based, Escherichia coli", "conditions": "NA=no activity; for SF (E. coli) at 25 μM: compound at 25 μM; for SF (E. coli) at 12.5 μM: compound at 12.5 μM", "method": "(§1) E. coli bacteria were cultured in Miller's broth at 37° C. overnight prior to treatment. B. subtilis bacteria were cultured in nutrient broth at 37° C. overnight prior to treatment. […] Bacterial density was measured based on OD600."}, "B. subtilis": {"test_system": "B. subtilis", "assay": "Sensitization of B. subtilis to erythromycin (sensitization fold from IC90, OD600, 20 h)", "assay_type": "cell-based, Bacillus subtilis", "conditions": "for SF (B. subtilis) at 6 μM: compound at 6 μM; for SF (B. subtilis) at 12 μM: compound at 12 μM; for SF (B. subtilis): sensitization fold = IC90 of erythromycin without/with compound, compound concentration not given, T=toxic", "method": "as §1"}, "[3]": {"test_system": "NDM-1 over-expressing E. coli", "assay": "microbe, parasite or virus in culture", "assay_type": "cell-based, Escherichia coli"}, "[4]": {"conditions": "antibiotic plus Compound C 5 μg/ml"}},
  "data": [
    {"smiles": "COc1cc(C(=N)N)ccc1OCc1cc(COc2ccc(C(=N)N)cc2OC)cc(C(C)(C)C)c1", "note": "[drawing 843]", "values": [
      {"measurement": "MIC", "setting": "MRSA [1]", "result": 12, "unit": "µM"}
    ]},
    {"smiles": "Cc1cc(COc2ccc(C3=NCCCN3)cc2)cc(COc2ccc(C3=NCCCN3)cc2)c1", "note": "[drawing 842]", "values": [
      {"measurement": "SF (MRSA) at 12 μM", "setting": "MRSA [2]; NA=no activity", "result": 4, "unit": "fold"},
      {"measurement": "SF (MRSA) at 25 μM", "setting": "MRSA [2]; compound at 25 μM, NA=no activity", "result": 8, "unit": "fold"}
    ]},
    {"smiles": "Cc1cc(COc2ccc(CN)cc2)cc(COc2ccc(CN)cc2)c1", "note": "[drawing 733]", "values": [
      {"measurement": "SF (E. coli) at 25 μM", "setting": "E. coli; erythromycin", "result": "4-fold at 25 μM"},
      {"measurement": "SF (B. subtilis) at 12.5 μM", "setting": "B. subtilis; erythromycin, compound at 12.5 μM, NA=no activity", "result": "16-fold at 12.5 μM"}
    ]},
    {"smiles": "COc1cc(C(=N)N)ccc1OCc1cc(COc2ccc(C(=N)N)cc2OC)cc(C(C)(C)C)c1", "note": "[drawing 741]", "values": [
      {"measurement": "SF (E. coli) at 6 μM", "setting": "E. coli; erythromycin, compound at 6 μM", "result": 2, "unit": "fold"},
      {"measurement": "SF (E. coli) at 12.5 μM", "setting": "E. coli; erythromycin", "result": 8, "unit": "fold"},
      {"measurement": "SF (B. subtilis) at 6 μM", "setting": "B. subtilis; erythromycin, NA=no activity", "result": 2, "unit": "fold"},
      {"measurement": "SF (B. subtilis) at 12 μM", "setting": "B. subtilis; erythromycin, NA=no activity", "result": 8, "unit": "fold"}
    ]},
    {"smiles": "Cc1cc(CCc2ccc(C(=N)N)cc2)cc(CCc2ccc(C(=N)N)cc2)c1", "note": "[drawing 734]", "values": [
      {"measurement": "SF (E. coli) at 12.5 μM", "setting": "E. coli; erythromycin", "result": 8, "unit": "fold"},
      {"measurement": "SF (E. coli) at 25 μM", "setting": "E. coli; erythromycin", "result": 32, "unit": "fold"},
      {"measurement": "SF (B. subtilis) at 6 μM", "setting": "B. subtilis; erythromycin, NA=no activity", "result": "32-fold at 6 μM"}
    ]},
    {"smiles": "COc1cc(C(=N)N)ccc1OCc1cc(C)cc(COc2ccc(C(=N)N)cc2OC)c1", "note": "[drawing 836]", "values": [
      {"measurement": "SF (MRSA) at 6 μM", "setting": "MRSA [2]", "result": "2-4 fold"},
      {"measurement": "SF (MRSA) at 12 μM", "setting": "MRSA [2]; NA=no activity", "result": "8-16 fold"},
      {"measurement": "MIC", "setting": "MRSA [1]", "result": 25, "unit": "µM"},
      {"measurement": "inhibition at 12 µM", "setting": "MRSA [1]", "result": 10, "unit": "%"}
    ]},
    {"smiles": "Cc1cc(CSc2ccc(C3=NCCN3)cc2)cc(CSc2ccc(C3=NCCN3)cc2)c1", "note": "[drawing 745]", "values": [
      {"measurement": "SF (B. subtilis) at 3 μM", "setting": "B. subtilis; erythromycin, compound at 3 μM", "result": 4, "unit": "fold"},
      {"measurement": "SF (B. subtilis) at 6 μM", "setting": "B. subtilis; erythromycin, NA=no activity", "result": 16, "unit": "fold"}
    ]},
    {"smiles": "N=C(N)c1ccc(OCc2ccc(COc3ccc(C(=N)N)cc3)cc2)cc1", "note": "[drawing 728]", "values": [
      {"measurement": "SF (B. subtilis)", "setting": "B. subtilis; NA=no activity", "result": "<2"}
    ]},
    {"smiles": "CC[C@H]1OC(=O)[C@H](C)[C@@H](O[C@H]2C[C@@](C)(OC)[C@@H](O)[C@H](C)O2)[C@H](C)[C@@H](O[C@@H]2O[C@H](C)C[C@H](N(C)C)[C@H]2O)[C@](C)(OC)C[C@@H](C)C(=O)[C@H](C)[C@@H](O)[C@]1(C)O", "note": "[Clarithromycin, clarithromycin]", "values": [
      {"measurement": "MIC", "setting": "[3]; Escherichia coli, antibiotic alone, read-out: MIC of AB only", "result": 24, "unit": "µg/mL"},
      {"measurement": "FIC", "setting": "[3]; [4]", "result": 0.12},
      {"measurement": "MIC of AB with Compound C (5 μg/ml)", "setting": "[3]; [4]", "result": 0.4, "unit": "µg/mL"}
    ]},
    {"smiles": "Cc1cc(COc2ccc(C(=N)N)cc2)nc(COc2ccc(C(=N)N)cc2)c1", "values": [
      {"measurement": "SF (E. coli) at 12.5 μM", "setting": "E. coli; erythromycin", "result": 8, "unit": "fold"},
      {"measurement": "SF (E. coli) at 25 μM", "setting": "E. coli; erythromycin", "result": 32, "unit": "fold"},
      {"measurement": "SF (E. coli)", "setting": "E. coli; sensitization fold = IC90 of erythromycin without/with compound, compound concentration not given, T=toxic", "result": 33},
      {"measurement": "SF (B. subtilis) at 6 μM", "setting": "B. subtilis; erythromycin, NA=no activity", "result": 8, "unit": "fold"},
      {"measurement": "SF (B. subtilis) at 12 μM", "setting": "B. subtilis; erythromycin, NA=no activity", "result": 32, "unit": "fold"},
      {"measurement": "SF (B. subtilis)", "setting": "B. subtilis; NA=no activity", "result": "> 30"}
    ]},
    {"smiles": "CC(C)NC(=N)c1ccc(OCc2cccc(COc3ccc(C(=N)NC(C)C)cc3F)c2F)c(F)c1", "note": "[drawing 840]", "values": [
      {"measurement": "SF (MRSA) at 6 μM", "setting": "MRSA [2]", "result": 8, "unit": "fold"},
      {"measurement": "SF (MRSA) at 12 μM", "setting": "MRSA [2]; NA=no activity", "result": "8-16 fold"},
      {"measurement": "inhibition at 12 µM", "setting": "MRSA [1]", "result": 30, "unit": "%"}
    ]},
    {"smiles": "Cc1cc(COc2cccc(C(=N)N)c2)cc(COc2cccc(C(=N)N)c2)c1", "note": "[drawing 845]", "values": [
      {"measurement": "SF (MRSA) at 12.5 μM", "setting": "MRSA [2]; compound at 12.5 μM", "result": "4-fold at 12.5 μM"},
      {"measurement": "MIC", "setting": "MRSA [1]", "result": 25, "unit": "µM"},
      {"measurement": "inhibition at 12.5 µM", "setting": "MRSA [1]; compound alone at 12.5 μM, read-out: Growth inhibition of MRSA at 12.5 μM", "result": 30, "unit": "%"}
    ]},
    {"smiles": "CC(C)(C)c1cc(COc2ccc(C(=N)N)cc2F)cc(COc2ccc(C(=N)N)cc2F)c1", "note": "[drawing 844]", "values": [
      {"measurement": "inhibition at 6 µM", "setting": "MRSA [1]; read-out: Growth inhibition of MRSA at 6 μM, compound alone at 6 μM, NA=no activity", "result": 60, "unit": "%"}
    ]},
    {"smiles": "COc1cc(C(=N)N)ccc1OCc1cccc(COc2ccc(C(=N)N)cc2OC)c1F", "note": "[drawing 731]", "values": [
      {"measurement": "SF (B. subtilis) at 6 μM", "setting": "B. subtilis; erythromycin, NA=no activity", "result": "4-fold at 6 μM"}
    ]},
    {"smiles": "Cc1cc(OCc2ccc(C(=N)N)cc2)cc(OCc2ccc(C(=N)N)cc2)c1", "note": "[drawing 736]", "values": [
      {"measurement": "SF (E. coli) at 25 μM", "setting": "E. coli; erythromycin", "result": "32-fold at 25 μM"},
      {"measurement": "SF (B. subtilis) at 12 μM", "setting": "B. subtilis; erythromycin, NA=no activity", "result": "32-fold at 12 μM"}
    ]}
  ]
}
